Values after ≈ are worked out from the molar mass of the structure shown.
How the values were obtained:
HSV-2 [1] = test: Topical treatment of genital HSV-2 infection, guinea pigs, second study
Method: In another study using the guinea pig genital model described above, animals were infected with HSV-2, then treated with KY-1 or Y-1 topically at concentrations of 2% or 5% drug. […] Animals were treated and scored daily for severity of infection for 19 days.
(§13) The MS strain of HSV-2 was utilized for the experimental animal infection. Female Hartley strain guinea pigs (Charles River Breeding Laboratories, Kingston, NY) weighing 250-300 g were inoculated intravaginally with 2.0×10^5 plaque-forming units of HSV-2 one hour after being swabbed for removal of vaginal secretions.
Formulations of KY-1 or Y-1 were prepared by dissolving the compound in a 1.5% methyl cellulose solution such that final concentration of compound was 2% or 5% (wt/wt). Control animals were given either no treatment (N=10 animals) or treatment with placebo (1.5% methylcellulose solution).
(§14) To determine the effect of therapy on the development and spread of external genital lesions, lesion severity was scored on a 0-5+ scale through the primary infection period (19-21 days). Lesion score-day areas and virus titer-day areas under the curve, and peak lesion scores and peak virus titers between untreated and placebo-treated or placebo-treated and drug-treated animals were compared using the Mann-Whitney U range sum test. A p-value of 0.05 or less was considered significant.
Animals were scored daily for 19 days following inoculation for presence of lesions and severity of lesions (on a 0-5+ point scale). Lesion scores were tabulated as area under the curve of daily lesion score vs. time (days) and peak lesion score observed. A known antiviral agent, acyclovir (ACV) was administered in a 5% formulation to 8 animals as a positive control in the study.

HSV-2 [2] = test: Topical treatment of genital HSV-2 infection, guinea pigs, first study; conditions: 5%
Method: Briefly, female guinea pigs were infected intravaginally with HSV-2, then treated topically three times daily beginning 6 hours or 48 hours after inoculation with HSV-2, as described in Example 13. […] Swabs of vaginal secretion were obtained and assayed for viral activity by a standard CPE assay. The severity of genital lesions was scored on a 0-5+ scale through the period of primary infection (21 days).
as §13
In the first study, groups of 10 guinea pigs were treated topically (0.1 ml intravaginally +0.1 ml on external genital skin) three times daily (approximately every eight hours) for seven days beginning 6 h or 48 h after inoculation with HSV-2.
To determine the effect of treatment on vaginal viral replication, swabs of vaginal secretions were obtained on days 1, 3, 5, 7 and 10 after HSV inoculation, placed in a tube containing 2.0 ml of media, vortexed and frozen at -70° C. until titrated for HSV-2. When all samples were collected, they were thawed, diluted serially and HSV-2 titers determined using rabbit kidney cells in a microtiter CPE assay.
as §14

HSV-2 333 (DHPG)' = test: Inhibition of viral yield, drug-resistant HSV-2 333(DHPG)'; conditions: Human alphaherpesvirus 2, HeLa, read-out: ID90
Method: (§15) These compounds tested were the nucleoside analogs acyclovir (ACV), ganciclovir (DHPG), phosphonoformate (PFA), and phosphomethoxyethyladenine (PMEA). Inhibition of viral yield was determined, as above, by infecting Hela cells in the presence of wild type or drug-resistant strains of HSV-1 or HSV-2, and serial dilutions of a selected anti-viral compound, and infecting Vero cells with serial dilutions of the Hela cell lysate, as above.
(§16) The KOS (HSV-1) and 333 (HSV-2) are wild type viruses; the KOS(PMEA)' and KOS(PFA)' are drug-resistant HSV-1 strains having a DNA polymerase mutation. The 333(DHPG) strain is a drug-resistantHSV-2 strain having a thymidine kinase mutation.
(§17) The following strains of HSV-1 and HSV-2 virus were used: KOS, a wild type HSV-1 virus; KOS (PMEA) and KOS (PFA), both drug-resistant HSV-1 viruses having a DNA polymerase mutation; 333, a wild type HSV-2 HSV-2 virus, and 333 (DHPG), a drug-resistant HSV-2 virus having a thymidine kinase mutation.
(§18) After growth at 37° C. for 24 hours in 2 ml of RPMI-1640 containing 2% FCS and penicillin and streptomycin (P/S), the cells were frozen at -70° C. until the time for titration. The cells were freeze/thawed 3 times to release virus from the cells, serially diluted 10 fold, and the serial dilutions were added to Vero cells in culture. After 2 hours incubation at 37° C. the virus was removed and 0.5 ml methycellulose (4K cps) in RPMI-1640 and 2% FCS+P/S was added. Two days later, the medium was removed. The cells were stained in 0.8% crystal violet in 50% ethanol. The plaques formed were counted and the titer was calculated from the fold of dilutions. From the drug dose response, the concentration of each drug required to effect a 90% inhibition of virus yield, the IC90 concentration was determined.

HSV-2 333 = test: Inhibition of viral yield, wild type HSV-2 333; conditions: Human alphaherpesvirus 2, HeLa, read-out: ID90
Method: as §15, §16, §17, §18

HSV-1 KOS (PFA)' = test: Inhibition of viral yield, drug-resistant HSV-1 KOS(PFA)'; conditions: Human alphaherpesvirus 1, HeLa, read-out: ID90
HSV-1 KOS(PMEA)' = test: Inhibition of viral yield, drug-resistant HSV-1 KOS(PMEA)'; conditions: Human alphaherpesvirus 1, HeLa, read-out: ID90
Method: as §15, §16, §17, §18

HSV-1 KOS = test: Inhibition of viral yield, wild type HSV-1 KOS; conditions: Human alphaherpesvirus 1, HeLa, read-out: ID90
Method: as §15, §16, §17, §18

HSV-1 [3] = test: HSV-1 viral yield inhibition by combined drug exposure; type: cell-based; conditions: HSV-1, FIG. 34A
Source text: With either drug alone, a maximum decrease in viral yield was slightly less than three logs (orders of magnitude).
Two days later, the medium was removed.

HSV-1 [4] = test: Plaque reduction assay, HSV-1, Vero cells; type: cell-based, HSV-1 (Kos-1)
Method: (§1) used in Table 3 were further tested for activity against HSV infection in
(§2) a plaque reduction assay, as detailed in Example 6. Here Vero cells, after
(§3) overnight incubation, were exposed to serial dilutions of KY compound,
(§4) from 0.625-10 μg/ml, and HSV-1 or HSV-2 virus for two hours. After
(§5) washing to remove drug and extracellular virus, the cells were further
(§6) incubated for 2 days, then stained and counted for plaque formation.
(§7) Percent inhibition was determined by dividing plaques produced by total
(§8) number of plaques in infected, untreated controls. From the concentration
(§9) effect curve of plaque inhibition (expressed as percent of control), the
(§10) concentration of compound required to produce 50% plaque reduction,
(§11) IC50, was determined. The IC50 values for infection by HSV-1 and
(§12) HSV-2 infection is given in the right-hand columns in Table 3. With

HIV-HXB = test: Inhibition of syncytia formation, HIV-HXB (HTLV-IIIB)
HSV-1 and HSV-2 = test: Viral yield inhibition, HeLa cells, plaque count on Vero cells; conditions: virus yield or CPE assays
Method: The ability of selected naphthalene-subunit compounds to inhibit HSV-1 and HSV-2 viral yields at selected drug concentrations up to 10 μg/ml was assessed in the viral inhibition assay described in Example 7. Briefly, cultured Hela cells were exposed to serially diluted KY compound and virus, allowed to grow for 24 hours, then freeze/thawed 3 times to release virus particles. Vero cells were infected serial dilutions of the viral lysates were assayed for plaque counts as described in Example 6.
1×10^6 HeLa S3 were plated in 25 T flasks in 5 ml RPMI-1640+5% FCS+P/S. 24 hours later, the medium was aspirated and replaced with 6×10^6 PFU HSV-1 or HSV-2, and serial dilutions of selected KY compounds, at 10, 5, 2.5, 1.25, and 0.625 μg/ml drug. After growth at 37° C. for 24 hours in 2 ml of RPMI-1640 containing 2% FCS and P/S, the cells were frozen at -70° C. until the time for titration. The cells were freeze/thawed 3 times to release virus from the cells, and serially diluted 10 fold.
1×10^5 Vero cells were plated in each well of 24 well multi-dish in 1 ml RPMI-1640+5% FCS+P/S+0.1% methylcellulose (15 cps). On the second day, after removal of the medium, the 10 fold serially diluted virus in 100 μl was added in duplicate. […] The plaques formed were counted and the titer was calculated from the fold of dilutions.

HSV-1 [5] = test: Topical treatment of ocular HSV-1 infection, rabbits
Method: New Zealand white rabbits were acclimated for a minimum of two days prior to inoculation to allow the animals to accommodate to conditions in the vivarium facility. After the accommodation period, animals received a slit lamp ocular examination to exclude any animals with preexisting anterior segment ocular defects. Animals were bilaterally inoculated topically with an 80 μl drop of Minimal Essential Medium (MEM; Gibco) containing 10^5 pfu/ml McKrae strain HSV-1; eyes were massaged for 30 seconds. Animals were replaced individually in cages.
On day 4 post inoculation (PI), animals were evaluated by slit lamp microscopy. Corneal epithelial, iris, and conjunctival disease were graded on an increasing scale of severity from 0+ to 4+. After evaluation, animals were divided into 4 groups of 5 animals with matched corneal, stromal and conjunctival involvement. Topical therapy was initiated immediately after animal grouping. Therapy groups included:
Group #1: 5 rabbits, Y-1 topical therapy (6.25 μg/50 μl) 5×/dayfor 4 days;
Group #2: 5 rabbits, Y-1 topical therapy (12.5 μg/50 μl) 5×/dayfor 4 days;
Group #3: 5 rabbits, Y-1 topical therapy (18.75 μg/50 μl) 5×/day for 4 days;
Group #4: 5 rabbits, placebo therapy (sterile water) 5×/day for 5 days.
All Y-1 doses were formulated to contain these concentrations in a volume of 50 μl (a standard eye drop).
Topical therapy with 0-19 μg Y-1 in 50 μl was initiated on day 4 post-inoculation (PI) and continued to day 7 PI. All animals received daily ocular slit lamp evaluations from day 3 through day 7 PI. The ocular HSV-1 induced disease severity was recorded daily.
Eyes of all animals were additionally sampled for the presence of infectious HSV-1 on days 0 (pre-inoculation), 3, 5, and 7 PI. Briefly, tear film was obtained by swabbing the lower and upper conjunctival sacs and retaining the swab in the nasal fornix for 10 seconds. The swabs were eluted individually in Hank's Buffered Saline (HBSS, Gibco Laboratories). Fifty microliter aliquots of the virus-HBSS eluate was adsorbed onto confluent HFF cell monolayers for 5 minutes. Monolayers were hydrated with Minimal Essential Medium (MEM; Gibco Laboratories), incubated at 37° C. and observed daily for two weeks to detect cytopathology consistent with HSV infection (HSV CPE).
On day 7 PI (sacrifice), the corneal epithelium was scraped from the eyes and HSV was recovered on HFF cell monolayers. Corneal epithelial co-cultures were evaluated daily by inverted light microscopy.

HSV-2 [6] = test: Plaque reduction assay, HSV-2, Vero cells; type: cell-based, HSV-2 (333); conditions: Human alphaherpesvirus 2, Vero
Method: as §1, §2, §3, §4, §5, §6, §7, §8, §9, §10, §11, §12

coagulation = test: Anti-coagulant activity after oral and intravenous administration; type: in vivo; conditions: protamine sulfate intravenous
Method: One of the considerations in the administering the composition, particularly when the drug is administered parenterally or orally, is systemic side effects. Studies conducted in support of the present invention indicate that the calix(n)arene compound, particularly the sulfonic acid compound, may show anti-coagulant activity after oral and intravenous administration. […] The protamine administration is timed to correspond to highest blood levels of the calix(n)arene compounds. In a typical method, a dose of protamine equivalent to about 1 mg per 100 heparin anticoagulant units is administered intravenously simultaneously with IV administration of the calix(n)arene, or 1-2 hours after oral administration of the macrocyclic drug. It is generally recommended that protamine be infused slowly (i.e., not more than a total of 50 mg/10 minutes).

Compound: Nc1nc2c(ncn2COCCO)c(=O)[nH]1 [ACV, acyclovir, reference compound]
- % Animals with Lesions (HSV-2 [1]; 5%, 24 h): 37.5%
- Lesion Score (AUC) (HSV-2 [1]; 5%, 24 h): 11.7
- Mean Peak lesion score (HSV-2 [1]; 5%, 24 h): 1.5
- Lesion score Area Under Curve (HSV-2 [2]; +6 h): 2.7
- Mean Peak lesion score (HSV-2 [2]; +6 h): 0.6
- Lesion score Area Under Curve (HSV-2 [2]; +48 h): 45.8
- Mean Peak lesion score (HSV-2 [2]; +48 h): 3.8
- IC90 (HSV-2 333 (DHPG)'): > 100 µM
- IC90 (HSV-2 333): ~10 µM
- IC90 (HSV-1 KOS (PFA)'): 100 µM
- IC90 (HSV-1 KOS(PMEA)'): 380 µM
- IC90 (HSV-1 KOS): 14 µM
- maximum decrease in viral yield, either drug alone (HSV-1 [3]): less than three

Compound: O=S(=O)(O)c1cc2c(O)c(c1)Cc1cc(S(=O)(=O)O)cc(c1O)Cc1cc(S(=O)(=O)O)cc(c1O)Cc1cc(S(=O)(=O)O)cc(c1O)Cc1cc(S(=O)(=O)O)cc(c1O)Cc1cc(S(=O)(=O)O)cc(c1O)Cc1cc(S(=O)(=O)O)cc(c1O)Cc1cc(S(=O)(=O)O)cc(c1O)C2 [Y-1]
- IC50 (HSV-1 [4]; Human alphaherpesvirus 1, Vero, plaque reduction, Vero cells): 7 mg/L (≈ 4.7 µM)
- relative anti-HSV activity, in words (HSV-1 [4]; plaque reduction HSV-1 and HSV-2): somewhat more active than the corresponding n=4 and n=6 compounds
- lesions versus placebo, in words (HSV-2 [1]; 2% or 6%, 6 h treatment): reduced numbers of animals exhibiting lesions, decreased mean lesion scores and decreased peak lesion score
- % Animals with Lesions (HSV-2 [1]; 2%, 6 h): 66.7%
- Lesion Score (AUC) (HSV-2 [1]; 2%, 6 h): 16.9
- Mean Peak lesion score (HSV-2 [1]; 2%, 6 h): 1.8
- % Animals with Lesions (HSV-2 [1]; 2%, 24 h): 60%
- Lesion Score (AUC) (HSV-2 [1]; 2%, 24 h): 22.0
- Mean Peak lesion score (HSV-2 [1]; 2%, 24 h): 2.3
- % Animals with Lesions (HSV-2 [1]; 6%, 6 h): 30%
- Lesion Score (AUC) (HSV-2 [1]; 6%, 6 h): 8.1
- Mean Peak lesion score (HSV-2 [1]; 6%, 6 h): 1.2
- % Animals with Lesions (HSV-2 [1]; 6%, 24 h): 40%
- Lesion Score (AUC) (HSV-2 [1]; 6%, 24 h): 14.7
- Mean Peak lesion score (HSV-2 [1]; 6%, 24 h): 1.8
- lesions, in words (HSV-2 [1]; 24 hours post-infection, 6% KY-1 or Y-1, 2% KY-1): reduced numbers of lesion bearing animals and reduced severity of lesions
- relative activity against HXB strain, in words (HIV-HXB; HXB strain): comparable activities against the HXB strain
- IC50 (HIV-HXB; Human immunodeficiency virus 1, read-out: HIV-HXB IC50): 16 mg/L (≈ 10.7 µM)
- ED90 concentration (HSV-1 and HSV-2): 12.5 μg/50 μl
- ocular disease, 12.5 μg/50 μl (HSV-1 [5]; 12.5 μg/50 μl topical): most effective ocular therapy
- corneal epithelial HSV-1 induced disease, 18.75 μg/50 μl (HSV-1 [5]; 18.75 μg/50 μl topical): effective in reducing the development of corneal epithelial HSV-1induced disease
- toxicity to corneal epithelial surface, conjunctiva, iris and stroma (HSV-1 [5]; 18.75 μg/50 μl, days 6 and 7): somewhat toxic to the corneal epithelial surface and to the conjunctiva, iris and stroma
- ocular disease severity versus placebo (HSV-1 [5]; all concentrations, topical): effective in reducing the development of HSV-1 induced ocular disease
- viral titer in epithelial scrapings (HSV-1 [5]; day 7): dose-dependent reduction in viral titer
- maximum decrease in viral yield, either drug alone (HSV-1 [3]): less than three
- IC50 (HSV-2 [6]): 7.2 mg/L (≈ 4.83 µM)

Compound: protamine sulfate
- blocking of anticoagulant effect of calix(n)arene (coagulation): effectively blocked

Reference: US5441983A, “Treatment of infection by enveloped virus with calix(N)arene compounds” (Genelabs Incorporated, priority 1992, dated 1995)
